In this experiment the test system is HBV viral production from HepAD38 cells. Briefly: Activity of test compounds on viral production from HepAD38 cells (viral load by qPCR of HBV core sequence in supernatant). It is filed as cell-based. Conditions: Hepatitis B virus, 120 h, 5 days incubation, HBV DNA in supernatant by qPCR, top concentration 10 μM, read-out: Viral Load EC50 Activity range. The gist of the method: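 EC50 and CC50 come from four-parameter fits of supernatant viral load and CellTiter-Glo viability, respectively. Viral load was measured by core-region TaqMan qPCR against HBV DNA standards and compared with DMSO controls. Tet-free HepAD38 cells (50,000/well, 2% FBS) were exposed to compound, highest 10 μM, for 5 days at 37° C.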
Background: Real-time PCR tracks product formation cycle by cycle.

SMILES strings stand for the structures. pEC50: −log10 of the molar value. Where only a bound is given, the exact number is not on record here.

One may read the pEC50 as the negative decadic logarithm of the EC50, by convention in mol/L. Consider `COCCN1C(C(=O)Nc2ccc(F)c(Cl)c2)CC(c2nccs2)NS1(=O)=O` (racemic) [HBV-CSU-058, Cis-N-(3-chloro-4-fluorophenyl)-2-(2-methoxyethyl)-5-(thiazol-2-yl)-1,2,6-thiadiazinane-3-carboxamide 1,1-dioxide], for which the pEC50 is above 6.00. For `CN1C(C(=O)Nc2ccc(F)c(Cl)c2)CC(c2ccc(OCC(=O)O)cc2)NS1(=O)=O` (racemic) [HBV-CSU-216, Cis-2-(4-(5-((3-Chloro-4-fluorophenyl)carbamoyl)-6-methyl-1,1-dioxido-1,2,6-thiadiazinan-3-yl)phenoxy)acetic acid], the pEC50 is below 5.30. In the case of `O=C(O)CN1C(C(=O)Nc2ccc(F)c(Cl)c2)CC(c2nccs2)NS1(=O)=O` (stereo not drawn) [HBV-CSU-110, Cis-2-(3-((3-Chloro-4-fluorophenyl)carbamoyl)-1,1-dioxido-5-(thiazol-2-yl)-1,2,6-thiadiazinan-2-yl)acetic acid] it was below 5.30; in that of `CN1C(C(=O)Nc2ccc(F)c(Br)c2)CC(c2ccc(F)cc2)NS1(=O)=O` (racemic) [HBV-CSU-211, Cis-N-(3-Bromo-4-fluorophenyl)-5-(4-fluorophenyl)-2-methyl-1,2,6-thiadiazinane-3-carboxamide 1,1-dioxide], above 6.00. With `CN1[C@H](C(=O)Nc2ccc(F)c(Cl)c2)C[C@H](c2cc(-c3ncnn3C)cs2)NS1(=O)=O` [HBV-CSU-327-ISO-I, Cis-N-(3-Chloro-4-fluorophenyl)-2-methyl-5-(4-(1-methyl-1H-1,2,4-triazol-5-yl)thiophen-2-yl)-1,2,6-thiadiazinane-3-carboxamide 1,1-dioxide], the pEC50 is above 6.00.

As for `CN1C(C(=O)Nc2ccc(F)c(Cl)c2)CC(c2cc(-c3ccc(NS(C)(=O)=O)cc3)cs2)NS1(=O)=O` (stereo not drawn) [HBV-CSU-171, Cis-N-(3-chloro-4-fluorophenyl)-2-methyl-5-(4-(4-(methylsulfonamido)phenyl)thiophen-2-yl)-1,2,6-thiadiazinane-3-carboxamide 1,1-dioxide], the pEC50 is above 6.00. In the case of `CN1[C@@H](C(=O)Nc2ccc(F)c(Cl)c2)C[C@@H](c2ccc(-c3cncnc3)s2)NS1(=O)=O` [HBV-CSU-272-ISO-II, Cis-N-(3-chloro-4-fluorophenyl)-2-methyl-5-(5-(pyrimidin-5-yl)thiophen-2-yl)-1,2,6-thiadiazinane-3-carboxamide 1,1-dioxide] it was below 5.30; in that of `CN1C(C(=O)Nc2ccc(F)c(Cl)c2)CC(c2cc(-c3ccccn3)cs2)NS1(=O)=O` (racemic) [HBV-CSU-168, Cis-N-(3-chloro-4-fluorophenyl)-2-methyl-5-(4-(pyridin-2-yl)thiophen-2-yl)-1,2,6-thiadiazinane-3-carboxamide 1,1-dioxide], above 6.00; in that of `CN1[C@H](C(=O)Nc2cc(F)c(F)c(F)c2)C[C@H](c2ccc(F)cc2)NS1(=O)=O` [HBV-CSU-212-ISO-I, Cis-5-(4-Fluorophenyl)-2-methyl-N-(3,4,5-trifluorophenyl)-1,2,6-thiadiazinane-3-carboxamide 1,1-dioxide], above 6.00. As for `Cc1ccc([C@@H]2C[C@H](C(=O)Nc3ccc(F)c(Cl)c3)N(C)S(=O)(=O)N2)s1` [HBV-CSU-115-ISO-II, Cis-N-(3-chloro-4-fluorophenyl)-2-methyl-5-(5-methylthiophen-2-yl)-1,2,6-thiadiazinane-3-carboxamide 1,1-dioxide], the negative-log EC50 (pEC50) was below 5.30. To `[2H]C([2H])([2H])N1C(C(=O)Nc2ccc(F)c(Cl)c2)CC(c2ccc(-c3cn(C([2H])([2H])[2H])cn3)s2)NS1(=O)=O` (stereo not drawn) [HBV-CSU-374] belongs above 6.00; to `[2H]C([2H])([2H])N1[C@H](C(=O)Nc2ccc(F)c(Cl)c2)C[C@H](c2ccc(Br)s2)NS1(=O)=O` [HBV-CSU-370-ISO-I, Cis-5-(5-bromothiophen-2-yl)-N-(3-chloro-4-fluorophenyl)-2-(methyl-d3)-1,2,6-thiadiazinane-3-carboxamide 1,1-dioxide], above 6.00. To `CN1[C@H](C(=O)Nc2ccc(F)c(Cl)c2)C[C@H](c2ccc(Cl)cc2)NS1(=O)=O` [HBV-CSU-265-ISO-I] belongs above 6.00.

For the compound `COC(=O)c1ccc(C2CC(C(=O)Nc3ccc(F)c(Cl)c3)N(C)S(=O)(=O)N2)cc1` (stereo not drawn) [HBV-CSU-256, Cis-methyl 4-(5-((3-chloro-4-fluorophenyl)carbamoyl)-6-methyl-1,1-dioxido-1,2,6-thiadiazinan-3-yl)benzoate], the pEC50 is 5.30 to 6.00. Consider `CN1[C@H](C(=O)Nc2ccc(F)c(Cl)c2)C[C@H](c2ccc(-c3ccccn3)s2)NS1(=O)=O` [HBV-CSU-160-ISO-I, Cis-N-(3-chloro-4-fluorophenyl)-2-methyl-5-(5-(pyridin-2-yl)thiophen-2-yl)-1,2,6-thiadiazinane-3-carboxamide 1,1-dioxide], for which the negative logarithm of the EC50 (pEC50) is above 6.00.

For `CC(C)n1cc(-c2ccc([C@H]3C[C@@H](C(=O)Nc4ccc(F)c(Cl)c4)N(C)S(=O)(=O)N3)s2)cn1` [HBV-CSU-292-ISO-I, Cis-N-(3-chloro-4-fluorophenyl)-5-(5-(1-isopropyl-1H-pyrazol-4-yl)thiophen-2-yl)-2-methyl-1,2,6-thiadiazinane-3-carboxamide 1,1-dioxide], the pEC50 was above 6.00. In the case of `CN1[C@H](C(=O)Nc2ccc(F)c(Cl)c2)C[C@H](c2ccc(-c3cnco3)s2)NS1(=O)=O` [HBV-CSU-269-ISO-I, Cis-N-(3-Chloro-4-fluorophenyl)-2-methyl-5-(5-(oxazol-5-yl)thiophen-2-yl)-1,2,6-thiadiazinane-3-carboxamide 1,1-dioxide] it was above 6.00. Take `CN1[C@H](C(=O)Nc2ccc(F)c(Cl)c2)C[C@H](c2ncc(-c3c[nH]cn3)s2)NS1(=O)=O` [HBV-CSU-333-ISO-I, 5-(5-(1H-imidazol-4-yl)thiazol-2-yl)-N-(3-chloro-4-fluorophenyl)-2-methyl-1,2,6-thiadiazinane-3-carboxamide 1,1-dioxide]: the pEC50 was above 6.00. In the case of `CN1[C@H](C(=O)Nc2ccc(F)c(Cl)c2)C[C@@H](c2ccc(-c3cnn(C)c3)s2)NS1(=O)=O` (racemic) [HBV-CSU-161-Trans (Rac), Trans-N-(3-chloro-4-fluorophenyl)-2-methyl-5-(5-(1-methyl-1H-pyrazol-4-yl)thiophen-2-yl)-1,2,6-thiadiazinane-3-carboxamide 1,1-dioxide] it was 5.30 to 6.00. In the case of `CN1[C@@H](C(=O)Nc2ccc(F)c(Cl)c2)C[C@@H](c2ccc(-c3cnn(CCO)c3)s2)NS1(=O)=O` [HBV-CSU-293-ISO-II, Cis-N-(3-chloro-4-fluorophenyl)-5-(5-(1-(2-hydroxyethyl)-1H-pyrazol-4-yl)thiophen-2-yl)-2-methyl-1,2,6-thiadiazinane-3-carboxamide 1,1-dioxide] it was below 5.30. In the case of `CN1[C@H](C(=O)Nc2ccc(F)c(Cl)c2)C[C@H](c2ccc(C(F)(F)F)cc2)NS1(=O)=O` (stereo in doubt) [HBV-CSU-217-ISO-I, Cis-N-(3-Chloro-4-fluorophenyl)-2-methyl-5-(4-(trifluoromethyl)phenyl)-1,2,6-thiadiazinane-3-carboxamide 1,1-dioxide] it was below 5.30. Regarding `CN1C(C(=O)Nc2ccc(F)c(Cl)c2)CC(c2ccc(-c3cncnc3)s2)NS1(=O)=O` (racemic) [HBV-CSU-272, Cis-N-(3-chloro-4-fluorophenyl)-2-methyl-5-(5-(pyrimidin-5-yl)thiophen-2-yl)-1,2,6-thiadiazinane-3-carboxamide 1,1-dioxide], the pEC50 was above 6.00. `CN1[C@H](C(=O)Nc2ccc(F)c(Cl)c2)C[C@H](c2cc(-c3cccs3)cs2)NS1(=O)=O` [HBV-CSU-170-ISO-I]: the negative logarithm of the EC50 (pEC50) was above 6.00. To `CN1[C@@H](C(=O)Nc2ccc(F)c(Cl)c2)C[C@@H](c2ccc(F)cc2)NS1(=O)=O` [HBV-CSU-112-ISO-II, Cis-N-(3-Chloro-4-fluorophenyl)-5-(4-fluorophenyl)-2-methyl-1,2,6-thiadiazinane-3-carboxamide 1,1-dioxide] belongs below 5.30; to `CN1C(C(=O)Nc2ccc(F)c(Cl)c2)CC(c2cccc(Cl)c2)NS1(=O)=O` (racemic) [HBV-CSU-261, Cis-N-(3-Chloro-4-fluorophenyl)-5-(3-chlorophenyl)-2-methyl-1,2,6-thiadiazinane-3-carboxamide 1,1-dioxide], above 6.00. Turning to `CN1C(C(=O)Nc2ccc(F)c(Cl)c2)CC(c2cc(-c3ncn(C)n3)cs2)NS1(=O)=O` (racemic) [HBV-CSU-326, Cis-N-(3-chloro-4-fluorophenyl)-2-methyl-5-(4-(1-methyl-1H-1,2,4-triazol-3-yl)thiophen-2-yl)-1,2,6-thiadiazinane-3-carboxamide 1,1-dioxide], the pEC50 was above 6.00. Regarding `CN1[C@H](C(=O)Nc2ccc(F)c(Cl)c2)C[C@H](c2ccc(-c3cnn(C)c3)cc2)NS1(=O)=O` [HBV-CSU-246-ISO-II, Cis-N-(3-Chloro-4-fluorophenyl)-2-methyl-5-(4-(1-methyl-1H-pyrazol-4-yl)phenyl)-1,2,6-thiadiazinane-3-carboxamide 1,1-dioxide], the pEC50 was above 6.00. In the case of `CN1[C@@H](C(=O)Nc2ccc(F)c(Cl)c2)C[C@@H](c2ccc(-c3ccc(F)cc3)s2)NS1(=O)=O` [HBV-CSU-238-ISO-II] it was 5.30 to 6.00; in that of `Cc1ncc([C@@H]2C[C@H](C(=O)Nc3ccc(F)c(Cl)c3)N(C)S(=O)(=O)N2)s1` [HBV-CSU-224-ISO-II, Cis-N-(3-Chloro-4-fluorophenyl)-2-methyl-5-(2-methylthiazol-5-yl)-1,2,6-thiadiazinane-3-carboxamide 1,1-dioxide], below 5.30. In the case of `CCN1C(C(=O)Nc2ccc(F)c(Cl)c2)CC(c2cccs2)NS1(=O)=O` (racemic) [HBV-CSU-024, Cis-N-(3-chloro-4-fluorophenyl)-2-ethyl-5-(thiophen-2-yl)-1,2,6-thiadiazinane-3-carboxamide 1,1-dioxide] it was above 6.00.

The values are drawn from patent US11078170B2 (Assembly Biosciences, Inc., priority 2017, dated 2021).
